The text below walks through data of EP1925615B1, “Method of fluorine-18 labelling of tropane derivatives” (Orphachem, priority 2006, dated 2008).

The target in data set [1] is dopamine transporter (DAT). The following applies: dopamine transporter (DAT) ligand; cited from earlier work.
Data set [2] concerns the target serotonine transporter (Homo sapiens, UniProt P31645). Particulars: cited from earlier work.
Data set [3] deals with norepinephrine transporter (Homo sapiens, UniProt P23975). Particulars: cited from earlier work.
The nature of data set [4]: Chemical and radiochemical stability of the radiotracer preparation by HPLC. It counts as physicochemical. The following applies: preparation ready for i.v. injection (physiological saline, ethanol below 10%); HPLC D at regular 15-min intervals during 120 min. Here is the method:
Quality controls of [^18F]LBT-999 ([^18F]-10) were performed on an aliquot of the preparation ready for i.v. injection. The radiotracer preparation was a clear and colourless solution with a measured pH between 5 and 7.
Quality control of [^18F]LBT-999 ([^18F]-10). The radiotracer preparation was visually inspected for clarity, absence of colour and particulates. An aliquot of the preparation was removed for determination of pH using standard pH-paper. Chemical and radiochemical purities were also assessed on this aliquot by HPLC (HPLC D), with a sample of authentic 10 (tR : 2.25 min) which synthesis and characterization were disclosed in Dollé F et al., 2006. Particular attention was paid to the absence of non-radioactive precursor 9 (tR: 3.45 min). Chemical and radiochemical stability of the entire preparation was tested by HPLC (HPLC D) at regular 15-min intervals during 120 min. Specific radioactivity of the radiotracer was calculated from three consecutive HPLC (HPLC D) analyses (average) and determined as follows: The area of the UV absorbance peak corresponding to the radiolabelled product was measured (integrated) on the HPLC chromatogram and compared to a standard curve relating mass to UV absorbance.

Sequence of serotonine transporter (P31645 whole entry): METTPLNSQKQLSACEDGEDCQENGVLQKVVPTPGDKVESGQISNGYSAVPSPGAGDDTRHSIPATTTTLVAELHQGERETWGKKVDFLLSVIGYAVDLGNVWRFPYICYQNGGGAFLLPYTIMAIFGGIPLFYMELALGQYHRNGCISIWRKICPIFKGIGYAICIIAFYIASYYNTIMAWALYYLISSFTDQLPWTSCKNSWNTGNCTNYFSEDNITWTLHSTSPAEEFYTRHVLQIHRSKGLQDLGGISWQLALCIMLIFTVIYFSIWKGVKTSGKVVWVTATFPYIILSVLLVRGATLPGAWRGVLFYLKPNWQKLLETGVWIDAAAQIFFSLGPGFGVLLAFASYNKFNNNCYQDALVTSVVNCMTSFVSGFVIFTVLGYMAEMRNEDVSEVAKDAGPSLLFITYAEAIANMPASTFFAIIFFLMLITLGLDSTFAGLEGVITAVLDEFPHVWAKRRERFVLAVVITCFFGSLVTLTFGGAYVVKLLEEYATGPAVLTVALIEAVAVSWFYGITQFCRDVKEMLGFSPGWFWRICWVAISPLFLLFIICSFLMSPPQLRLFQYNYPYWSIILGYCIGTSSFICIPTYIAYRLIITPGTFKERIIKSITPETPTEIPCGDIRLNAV
Sequence of norepinephrine transporter (P23975 whole entry): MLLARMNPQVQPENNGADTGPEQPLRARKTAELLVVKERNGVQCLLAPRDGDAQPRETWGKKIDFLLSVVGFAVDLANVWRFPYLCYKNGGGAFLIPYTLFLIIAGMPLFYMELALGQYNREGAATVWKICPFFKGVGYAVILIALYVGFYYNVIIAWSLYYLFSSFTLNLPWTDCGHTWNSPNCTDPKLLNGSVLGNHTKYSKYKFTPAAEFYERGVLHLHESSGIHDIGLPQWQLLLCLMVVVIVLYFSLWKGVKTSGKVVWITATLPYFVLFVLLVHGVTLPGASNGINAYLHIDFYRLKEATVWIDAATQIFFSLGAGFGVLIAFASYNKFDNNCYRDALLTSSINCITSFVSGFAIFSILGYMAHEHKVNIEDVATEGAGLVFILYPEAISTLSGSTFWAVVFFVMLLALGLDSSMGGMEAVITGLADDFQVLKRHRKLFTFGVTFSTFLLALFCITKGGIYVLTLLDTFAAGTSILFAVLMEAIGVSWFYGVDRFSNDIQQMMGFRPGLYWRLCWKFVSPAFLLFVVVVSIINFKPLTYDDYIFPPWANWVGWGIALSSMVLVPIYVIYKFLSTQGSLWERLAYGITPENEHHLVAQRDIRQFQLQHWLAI

By Kd is commonly meant a measure of binding affinity in units of concentration. As usually defined, the IC50 is the concentration that inhibits the measured activity by half. In the case of `COC(=O)[C@H]1[C@@H](c2ccc(C)cc2)C[C@@H]2CC[C@H]1N2C/C=C/CF` [LBT-999, 8-((E)-4-fluoro-but-2-enyl)-3β-p-tolyl-8-aza-bicyclo[3.2.1]octane-2β-carboxylic acid methyl ester], in data set [1], the Kd was 9 nM. In addition, the IC50 in data set [2] and in data set [3] was over 1000 nM throughout.

As to `COC(=O)[C@H]1[C@@H](c2ccc(C)cc2)C[C@@H]2CC[C@H]1N2C/C=C/C[18F]` [[^18F]LBT-999, 8-((E)-4-[^18F]fluoro-but-2-enyl)-3β-p-tolyl-8-aza-bicyclo-[3.2.1]octane-2β-carboxylic acid methyl ester], in data set [4], the “chemically and radiochemically stable” value is “at least 120 minutes”.
